Data reported in a melting point compilation (Tetko et al.; mined from patent text by program, amines drawn as free bases though some values may be those of a salt).

| Structure (SMILES) | melting point [°C] |
| --- | --- |
| CCC(C)Oc1nc(N)nc2c1ncn2C1C=CC(CO)C1 (centres undefined) | 159 to 161 |
| CN(C)Cc1nnc(CO)n1-c1ccc(Cl)cc1C(=O)c1ccccc1 | 138 to 141 |
| COc1cc(CN2Cc3cc(OC)c(O)cc3CC2C)cc(OC)c1 (centres undefined) | 155 to 158 |
| C[C@@H](n1cnc2cc(C#N)ccc2c1=O)[C@](O)(Cn1cncn1)c1ccc(F)cc1F | 168 to 169 |
| Cc1cc(N)nc(N)n1 | 183 |
| CCCC(Cc1ccc(OCCNC(=O)c2ccc(-c3ccccn3)cc2)cc1)C(=O)O (centres undefined) | 81 to 82.5 |
| C[C@H]1CCCC(C)(C)[C@@H]1C(=O)c1ccoc1 | 114 to 116 |
| CCCc1c(OS(=O)(=O)N(C)C)cc2oc3cc(Cl)cn3c(=O)c2c1O | 159 to 160 |
| CC12CCC(C(=O)O)=CC1=CCc1cc(Cl)ccc12 (single isomer, unassigned; (-)) | 228 to 230 |
| O=C1Cn2ccnc2-c2c(Br)cccc2N1 | 234 to 235 |
| CC(=O)c1cc2c(=O)n(NS(C)(=O)=O)c(=O)[nH]c2cc1C(F)(F)F | 258 to 265 |
| CC(C)(C)c1cc2c(cc1O)C(C)(C)CC2(C)C | 114 |
| CC(C)(C)OC(=O)NCCNC(=O)Nc1ccccc1C(=O)NC1CCN(C(c2ccccc2)c2ccccc2)CC1 | 226 to 228 |
| O=C1OC2=C(COc3ccccc32)C1=O | 146 to 148 |
| CCCCCOc1cc2c(cc1C(=O)Oc1ccc(C(=O)O)cn1)C(C)(C)CCC2(C)C | 132 to 133 |
| Cn1ncc2c1-c1c(SC(C)(C)C)sc(C(N)=O)c1CC2 | 146 to 147 |
| COc1ccncc1C#N | 124 to 126 |
| CCn1nnnc1CCC1(C)Cn2cc([N+](=O)[O-])nc2O1 (centres undefined) | 135 to 137 |
| COc1ccc(C2CCOCC2)c2sc(NC(=O)c3ccnc(CN4CCOCC4)c3)nc12 | 199 to 201 |
| FC(F)(F)Oc1ccc(-c2ccc(CCl)cn2)cc1 | 34 to 36 |
| COC1=C(OC)C(=O)C(CCC(=O)N[C@@H](Cc2ccc(O)cc2)C(=O)O)=C(C)C1=O | 170 |
| Cn1c(=O)[nH]c(=O)c2c1ncn2Cc1noc(C2CCCCC2)n1 | 245 to 248 |
| CC12CCC(=O)C=C1CCN(C(=O)OCc1ccccc1)C2 (centres undefined) | 128 |

| Structure (SMILES) | melting point [°C] |
| --- | --- |
| C=Cn1cc(C(=O)O)c(=O)c2cc(F)c(N3CCNCC3)cc21 | 248 to 251 |
| CCOc1ncnc(C(F)(F)F)c1CS(=O)(=O)C1=NOC(C)(CCl)C1 (centres undefined) | 76 to 78 |
| COc1ccc(Oc2nccc(-c3c(-c4ccc(F)cc4)ncn3C3CCNCC3)n2)cc1 | 190 to 191 |
| C=C(C)OC(=O)c1ccc(C(=O)OC(=C)C)cc1 | 72 to 73.5 |
| CC[C@H](COC)n1cc(Br)nc(N2CCc3cc(OC)cc(C)c32)c1=O | 116 to 118 |
| CC1(C)CCC(C)(C)c2cc(Oc3ccc(C=O)cc3)ccc21 | 75 to 76 |
| CCN(CC)C(=O)Nc1cc(C(C)(C)C)on1 | 122 to 124 |
| O=C1CN[C@@H](c2ccccc2)[C@@H](c2ccccc2)O1 | 139 |
| N#Cc1ncccc1-c1nc2cccnc2o1 | 129 to 133 |
| IC#CCOc1cccnc1 | 130 |
| COC(=O)c1sc(OC)c(Br)c1O | 107 to 109 |
| COc1ccc(-c2cc3ccc(OC)cc3c(=S)[nH]2)cc1 | 188 to 190 |
| CCCCCc1cc2c(nc(O)n2CCCCS(C)(=O)=O)c(N)n1 | 188 to 189 |
| O=C(NC(Cc1ccc(OCc2ccccc2)cc1)C(=O)O)c1nc2ccc(-c3ccc(Cl)cc3)cn2c1Cl (centres undefined) | 242 to 244 |
| Cc1ccc(I(Cl)Cl)c([N+](=O)[O-])c1 | 50 to 52 |
| O=C(O)c1cc(OCCCc2ccccc2)cc(OCCCc2ccccc2)c1 | 107 to 109 |
| CN(Cc1ccc(F)cc1)C1CCN(c2ccc(C(=O)O)cc2)CC1 | 256 to 258 |
| CCc1cccc2nc(C(=O)OC)c(C(=O)OC)c(O)c12 | 111 to 114 |
| N#Cc1c(I)c(C(=O)NCCO)c(I)c(C(=O)NCCO)c1I | 300 |
| c1cncc(CNC2=Nc3ccccc3Nc3ccccc32)c1 | 150 to 152 |
| CCC(CC)n1cc(Cl)nc(N2CCc3cc(Cl)cc(Cl)c32)c1=O | 168 to 170 |
| CN1C(=O)c2ccc(CBr)cc2S1(=O)=O | 153 to 154 |
| Cc1ccc(S(=O)(=O)NC2(c3ccccc3)C3=NCC(C)(C)CN3c3ccccc32)cc1 (centres undefined) | 224 to 226 |

| Structure (SMILES) | melting point [°C] |
| --- | --- |
| COc1ccc(OC)c(CN2CCc3cc(O)c(OC)cc3C2)c1 | 104 to 105 |
| COc1cc(OC)c2c(=O)[nH]c(-c3ccc(N4CCC(O)CC4)cc3)nc2n1 | 284 to 286 |
| CN1CCN(C(=O)Oc2ccc([N+](=O)[O-])cc2)CC1 | 134 to 135 |
| CC(C)C1Cc2cc(OCC(=O)O)c(Cl)c(Cl)c2C1=O (centres undefined) | 161 to 164 |
| CCOC(=O)C=CC(=O)Nc1ccc(Cl)cc1C(=O)c1ccccc1Cl | 113 to 114 |
| CN1CCCC1=NC(=O)Nc1c(Cl)cccc1Cl | 134 to 136 |
| O=C(O)CCn1c(=O)n2n(c1=O)C(C(=O)O)C=CC2 (centres undefined) | 172 to 175 |
| COc1ccc2c3c1OC1C4(CCC5(F)C(C2)N(C(=O)C2CC2)CCC315)OCCO4 (centres undefined) | 191 to 193 |
| CN(C)C=Nc1c(Cl)cc(N=Cc2cccc(F)c2)cc1Cl | 95 to 96 |
| COc1cc2c(cc1C)CCC2c1cnc[nH]1 (centres undefined) | 68 to 70 |
| CCCc1nc(C(C)=O)c(C(=O)OCC)[nH]1 | 76 to 78 |
| Nc1cc(-c2ccco2)ccc1Nc1cccc(-n2cccc2)c1 | 163 to 164 |
| CN(C)C(=O)N(C)c1nnc(C(C)(C)C#N)s1 | 92 to 94 |
| CCCCNC(=O)NS(=O)(=O)c1ccccc1CCl | 104 to 106 |
| CCOC(=O)c1cn2c3c(cc(N(C)C)cc3c1=O)CCC2C (centres undefined) | 219 to 222 |
| O=c1c(Cc2ccccc2)c(-c2ccccc2)oc2cc(OCC3CO3)ccc12 (centres undefined) | 133 to 138 |
| COCC(OC(C)=O)C1CC(=O)C2(C)CCC3C(CCC4=CC(=O)C=C(C)C43C)C12 (centres undefined) | 184 to 185 |
| CCCn1nc(C(=O)OCC)cc1CC(C)(C)NC(=O)OC(C)(C)C | 109 to 111 |
| Cc1ncc(CCCOc2c(C)cc(C#N)cc2C)s1 | 64 to 66 |
| CC1(C)Cc2cc3c(cc2O1)OCC31C(=O)N(CC(=O)Nc2ccccc2F)c2cccc(-c3cncnc3)c21 (centres undefined) | > 250 |
| CCOc1ccc(C(=O)N(C)Cc2cccc(-c3ccc(CC4SC(=O)NC4=O)cc3)c2)cc1 (centres undefined) | 182 |
| OCc1nnc(-c2ccc3occ(-c4cccc(OC(F)(F)F)c4)c3c2)o1 | 158 to 159 |
| Cc1oc(-c2ccccc2)nc1COc1ccc(COc2nn(Cc3ccc(OCc4nc(-c5ccccc5)oc4C)cc3)cc2CO)cc1 | 157 to 158 |

Further lines, results first:

| melting point [°C] | Structure (SMILES) |
| --- | --- |
| 244 to 246 | COc1ccc(-c2csc(Nc3cccc4ccccc34)n2)cc1OC |
| 175 | CCCCOc1ccc(S(=O)(=O)C2(C(=O)O)CCN(Cc3cccc(OC)c3)CC2)cc1 |
| 205 to 206 | COc1ccc2cccc3c2c1C(=O)N(O)C3=O |
| 195 to 197 | CCn1c2ccccc2c2cc(NC(C)=O)ccc21 |
| 130 | Cc1cccc(NC(=O)c2cc(Cl)cc(C)n2)n1 |
| 158 to 161 | O=C1NCCN1Cc1ccc2c(Br)cccc2c1 |
| 192 to 194 | O=c1nc(NCc2ccccc2)sc2c([N+](=O)[O-])cc(C(F)(F)F)cc12 |
| 182 to 184 | CC(C)(C)n1c(=O)c2c(-c3nc(C4CC4)no3)ncn2c2ccccc21 |
| 190 to 191 | CC(C)n1nc(-c2sc(C(=O)NCc3ccccn3)nc2-c2ccccc2F)ccc1=O |
| 79 to 81 | COc1cc(C(=O)Cc2ccccc2C)ccc1O |
| 79 to 80 | CC(=O)COc1cccc2ccc(OC(C)=O)nc12 |
| 85 to 87 | O=S(=O)(c1ccccc1)n1ccc2c(OCCCl)cccc21 |
| 264 to 269 | O=C(O)c1ccc2c(c1)C(=O)c1ccccc1OC2 |
| 182 to 183 | CC1(c2ccc(-c3ccccc3)cc2)OC(=O)C(OCc2ccccc2)=C1O (centres undefined) |
| 228 to 230 | COC(=O)c1ccc(C(=O)c2ccc(C(=O)OC)cc2)cc1 |
| 109 to 110 | CCC(Nc1ccc(OC)nc1)n1nnc2ccccc21 (centres undefined) |
| 271 to 273 | CC(C)c1ccc(N(C)C(=O)Cn2cnc3[nH]c(=O)n(C)c(=O)c32)cc1 |
| 155 | NS(=O)(=O)c1ccc(Nc2ccccc2)c([N+](=O)[O-])c1 |

| melting point [°C] | Structure (SMILES) |
| --- | --- |
| 138 to 140 | COCc1cn(-c2cccc(C(F)(F)F)c2)nc(C(=O)OC)c1=O |
| 57 to 59 | CCCCCCNC(=O)Oc1ccc(Oc2ccccc2)cc1 |
| 139 to 141 | N#Cc1c[nH]c2cccc(OCc3ccccc3)c12 |
| 132 to 134 | Cn1c(C2CC2)nc2c(O[C@@H]3c4ccccc4C[C@H]3O)cc(C(=O)O)cc21 (relative stereo) |
| 88 to 90 | CC(C)(NSc1nc2ccccc2s1)c1ccccc1 |
| 97 to 99 | COC(=O)Cc1ccccc1CSc1nc2cc(C(F)(F)F)ccc2s1 |
| 84 to 85 | Cc1ccc(-c2nc3ccccc3s2)cc1 |
| 180 to 181 | Nc1nc(-c2cccc3ccccc23)cc2ccc(Cl)cc12 |
| 122 to 125 | CC1=CC(OCc2ccccc2)(OC(=O)c2ccc(Br)c(OCCn3cnnn3)c2C)N(C)N1 (centres undefined) |
| 276 to 278 | Cc1cccc(C)c1NC(=O)c1ccc(NC(=O)CN(C)C)cc1 |
| 172 to 174 | CC(C)(C)c1ccc(C=O)cc1NC(=O)CC1c2ccccc2Oc2ccccc21 |
| 137 to 138 | CCOC(=O)c1cc(-c2ccc(N)cc2)cnc1C |
| 137 to 138 | CCC(=O)N1Cc2cn(C)nc2-c2cc(Cl)ccc21 |
| 145 to 148 | CC(C#N)c1ccc(C(=O)c2ccc(Cl)cc2)n1C (centres undefined) |
| 206 | COCC(=O)Nc1ccc(C2=NNC(=O)C3CC23)cc1 (centres undefined) |
| 118 | CCC(Nc1nc(NC(C)=O)nc(C(C)F)n1)c1ccccc1 (centres undefined) |
| 151 to 152 | CCCCN(CC)CC(=O)N1c2ccccc2NC(=O)c2cncnc21 |
